Experimental data from ChEMBL document CHEMBL1201862, “PubChem BioAssay data set” (2004).
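1) Cells in 96-well plates. 2) Compound, 48 h, 5 concentrations. 3) Linear interpolation between surrounding doses. 4) Unreached endpoint = highest concentration. At the GI50, growth is halved.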 Activity calls are given as the source filed them. Rule as the data show it: active = GI50 up to about 1.1 µM and inactive = higher.

What was measured:
Assay in all cases: NCI tumour cell line growth inhibition, 48 h
786-0 = test system: 786-0
A549 = test system: A549
ACHN = test system: ACHN
COLO 205 = test system: COLO 205
HCC 2998 = test system: HCC 2998
HOP-62 = test system: HOP-62
IGROV-1 = test system: IGROV-1
K562 = test system: K562
MDA-N = test system: MDA-N
Malme-3M = test system: Malme-3M
NCI-H522 = test system: NCI-H522
NCI/ADR-RES = test system: NCI/ADR-RES
OVCAR-8 = test system: OVCAR-8
SF-295 = test system: SF-295
SK-MEL-2 = test system: SK-MEL-2
SK-OV-3 = test system: SK-OV-3
SW-620 = test system: SW-620
TK-10 = test system: TK-10
U-251 = test system: U-251
UACC-62 = test system: UACC-62

C=C(CC[C@@H](C)[C@H]1CC[C@H]2[C@@H]3C[C@@H](O)[C@H]4C[C@@H](O)CC[C@]4(CO)[C@H]3CC[C@]12C)C(C)C
GI50 (786-0): 3.75 µM (inactive)
GI50 (A549): 4.23 µM (inactive)
GI50 (ACHN): 5.81 µM (inactive)
GI50 (COLO 205): 7.71 µM (inactive)
GI50 (HCC 2998): 0.382 µM (active)
GI50 (HOP-62): 7.57 µM (inactive)
GI50 (IGROV-1): 5.18 µM (inactive)
GI50 (K562): 1.49 µM (inactive)
GI50 (MDA-N): 8.49 µM (inactive)
GI50 (Malme-3M): 6.49 µM (inactive)
GI50 (NCI-H522): 5.24 µM (inactive)
GI50 (NCI/ADR-RES): 4.49 µM (inactive)
GI50 (OVCAR-8): 5.47 µM (inactive)
GI50 (SF-295): 9.12 µM (inactive)
GI50 (SK-MEL-2): 7.33 µM (inactive)
GI50 (SK-OV-3): 9.1 µM (inactive)
GI50 (SW-620): 5.98 µM (inactive)
GI50 (TK-10): 2.37 µM (inactive)
GI50 (U-251): 6.44 µM (inactive)
GI50 (UACC-62): 8.15 µM (inactive)

O=C1c2cccc(O)c2C(=O)c2c(OC3OC(CO)C(O)C(O)C3O)cccc21 (stereo not given)
GI50 (786-0): 22.2 µM (inactive)
GI50 (A549): 27.3 µM (inactive)
GI50 (ACHN): 61.7 µM (inactive)
GI50 (COLO 205): 19.4 µM (inactive)
GI50 (HCC 2998): 24.8 µM (inactive)
GI50 (HOP-62): 46.3 µM (inactive)
GI50 (IGROV-1): 39.2 µM (inactive)
GI50 (K562): 48 µM (inactive)
GI50 (MDA-N): 28.6 µM (inactive)
GI50 (Malme-3M): 6.12 µM (inactive)
GI50 (NCI-H522): 15.8 µM (inactive)
GI50 (NCI/ADR-RES): 17 µM (inactive)
GI50 (OVCAR-8): 31.8 µM (inactive)
GI50 (SF-295): 48.5 µM (inactive)
GI50 (SK-MEL-2): 46.8 µM (inactive)
GI50 (SK-OV-3): 48.2 µM (inactive)
GI50 (SW-620): 16.9 µM (inactive)
GI50 (TK-10): 40.4 µM (inactive)
GI50 (U-251): 25.2 µM (inactive)
GI50 (UACC-62): 49.8 µM (inactive)

CC(=O)C(C(=O)c1ccc(C)cc1)[C@H]1OC(C)(C)O[C@H]1[C@H]1COC(C)(C)O1 (stereo not given in full)
GI50 (786-0): 2.88 µM (inactive)
GI50 (A549): 11.2 µM (inactive)
GI50 (ACHN): 6.15 µM (inactive)
GI50 (COLO 205): 10.3 µM (inactive)
GI50 (HCC 2998): 7.24 µM (inactive)
GI50 (HOP-62): 6.12 µM (inactive)
GI50 (IGROV-1): 3.17 µM (inactive)
GI50 (K562): 1.78 µM (inactive)
GI50 (MDA-N): 1.85 µM (inactive)
GI50 (Malme-3M): 6.92 µM (inactive)
GI50 (NCI-H522): 2.34 µM (inactive)
GI50 (NCI/ADR-RES): 4.54 µM (inactive)
GI50 (OVCAR-8): 1.9 µM (inactive)
GI50 (SF-295): 7.78 µM (inactive)
GI50 (SK-MEL-2): 2.92 µM (inactive)
GI50 (SK-OV-3): 10.3 µM (inactive)
GI50 (SW-620): 1.84 µM (inactive)
GI50 (TK-10): 7.73 µM (inactive)
GI50 (U-251): 1.91 µM (inactive)
GI50 (UACC-62): 6.1 µM (inactive)

Cc1nc(N)sc1/N=N/c1ccccc1Br
GI50 (786-0): 36.6 µM (inactive)
GI50 (A549): > 53.7 µM (inactive)
GI50 (ACHN): 43.1 µM (inactive)
GI50 (COLO 205): > 54.7 µM (inactive)
GI50 (HCC 2998): 8.87 µM (inactive)
GI50 (HOP-62): 39.3 µM (inactive)
GI50 (IGROV-1): 24.1 µM (inactive)
GI50 (K562): > 65.9 µM (inactive)
GI50 (MDA-N): 27.9 µM (inactive)
GI50 (Malme-3M): 26.2 µM (inactive)
GI50 (NCI-H522): 14.2 µM (inactive)
GI50 (NCI/ADR-RES): 39.4 µM (inactive)
GI50 (OVCAR-8): > 54.3 µM (inactive)
GI50 (SF-295): 44.9 µM (inactive)
GI50 (SK-MEL-2): 34 µM (inactive)
GI50 (SK-OV-3): > 57.7 µM (inactive)
GI50 (SW-620): > 53.1 µM (inactive)
GI50 (TK-10): 37.9 µM (inactive)
GI50 (U-251): 31 µM (inactive)
GI50 (UACC-62): 28.6 µM (inactive)

Cc1ncc([N+](=O)[O-])n1CCNC(=O)Cn1c([N+](=O)[O-])cnc1C
GI50 (786-0): > 100 µM (inactive)
GI50 (A549): > 100 µM (inactive)
GI50 (ACHN): > 100 µM (inactive)
GI50 (COLO 205): > 100 µM (inactive)
GI50 (HCC 2998): > 100 µM (inactive)
GI50 (HOP-62): > 100 µM (inactive)
GI50 (IGROV-1): > 100 µM (inactive)
GI50 (K562): > 100 µM (inactive)
GI50 (MDA-N): > 100 µM (inactive)
GI50 (Malme-3M): > 100 µM (inactive)
GI50 (NCI-H522): > 100 µM (inactive)
GI50 (NCI/ADR-RES): > 100 µM (inactive)
GI50 (OVCAR-8): > 100 µM (inactive)
GI50 (SF-295): > 100 µM (inactive)
GI50 (SK-MEL-2): > 100 µM (inactive)
GI50 (SK-OV-3): > 100 µM (inactive)
GI50 (SW-620): > 100 µM (inactive)
GI50 (TK-10): > 100 µM (inactive)
GI50 (U-251): > 100 µM (inactive)
GI50 (UACC-62): > 100 µM (inactive)
